Source: patent publication US9562899B2, “Method of detecting OXA-048 carbapenemase producing bacteria” (BIOMÉRIEUX, priority 2012, dated 2017)

Assays:
Experiment in all cases: Temocillin MIC, agar dilution (Example 1)
Type in all cases: cell-based, Enterobacteriaceae
NDM-1 strains = conditions: Ex 1; temocillin alone; MIC in mg/l
Description: (§1) Determination of the MICs with Respect to Temocillin for a Panel of CPE Strains (Using the Agar Dilution Method)
(§2) Reaction medium: the base is a chromLD™ CPS medium (bioMérieux, ref. 43821-43829), comprising a chromogenic substrate for beta-glucuronidase, a chromogenic substrate for beta-glucosidase, a chromogenic substrate for beta-galactosidase and a substrate for deaminase. Temocillin is added to this base medium at the concentrations indicated hereinafter.
(§3) Temocillin range tested: 50-150-200-300 mg/l (disodium temocillin, Eumedica SA, Manage, Belgium).
(§4) The media are inoculated by depositing a spot: 1 μl of a microbial suspension in physiological saline at 0.5 McF, diluted to 1/10.
(§5) Incubation for 24 h at 37° C.
(§6) Reading after incubation for 24 hours. The medium with the smallest temocillin concentration on which a negative growth spot is obtained will be retained as the MIC. The spots having only 3 colonies or less or a total absence of growth were considered to be negative.

[1] = test system: strains with impermeability-mediated resistance to carbapenems (IR); conditions: Ex 1; temocillin alone; MIC in mg/l
Description: as §1, §2, §3, §4, §5, §6

OXA-48 strains = test system: OXA-48 strains
Description: as §1, §2, §3, §4, §5, §6

VIM strains = conditions: Ex 1; temocillin alone; MIC in mg/l
Description: as §1, §2, §3, §4, §5, §6

[2] = Ex 1, temocillin alone, MIC in mg/l

With `CO[C@@]1(NC(=O)C(C(=O)O)c2ccsc2)C(=O)N2[C@@H](C(=O)O)C(C)(C)S[C@@H]21` (stereo partly drawn) [temocillin] the “No. of NDM-1 strains with MIC 150” value (NDM-1 strains) was 1, the “No. of NDM-1 strains with MIC 200” value (NDM-1 strains) was 0 and the “No. of NDM-1 strains with MIC 300” value (NDM-1 strains) was 0. The “No. of NDM-1 strains with MIC >300” value (NDM-1 strains) was 0, the “No. of NDM-1 strains with MIC ≦50” value (NDM-1 strains) was 25 and the “No. of IR strains with MIC 150” value [1] was 2. The “No. of IR strains with MIC 200” value [1] was 0, the “No. of IR strains with MIC 300” value [1] was 0 and the “No. of IR strains with MIC >300” value [1] was 0. For the same molecule, the “No. of IR strains with MIC ≦50” value [1] was 8, the MIC (OXA-48 strains) was greater than 300 mg/L and the “No. of OXA-48 strains with MIC 150” value (OXA-48 strains; [2]) was 0. The “No. of OXA-48 strains with MIC 200” value (OXA-48 strains; [2]) was 0, the “No. of OXA-48 strains with MIC 300” value (OXA-48 strains; [2]) was 0 and the “No. of OXA-48 strains with MIC >300” value (OXA-48 strains; [2]) was 15. For the same molecule, the “No. of OXA-48 strains with MIC ≦50” value (OXA-48 strains; [2]) was 1, the “No. of VIM strains with MIC 150” value (VIM strains) was 5 and the “No. of VIM strains with MIC 200” value (VIM strains) was 1. The “No. of VIM strains with MIC 300” value (VIM strains) was 0, the “No. of VIM strains with MIC >300” value (VIM strains) was 1 and the “No. of VIM strains with MIC ≦50” value (VIM strains) was 9.
